Laboratory results: ChEMBL document CHEMBL1255377, “Synergy of human immunodeficiency virus protease inhibitors with chloroquine against Plasmodium falciparum in vitro and Plasmodium chabaudi in vivo” (Antimicrob Agents Chemother, 2008)
Active and inactive are the calls of the source. The rule behind the calls is not given here.

What was measured:
Assay type in all cases: functional, organism-based
Plasmodium chabaudi [1] = test: Antimicrobial activity against chloroquine-resistant Plasmodium chabaudi ASCQ infected in NIH mice (Mus musculus) assessed as potentiation of 2.5 mg/kg chloroquine-mediated antimalarial activity at 100 mg/kg, perorally administered after 72 hrs post inoculation measured on day 4 post infection
Plasmodium falciparum [2] = test: Antimicrobial activity against chloroquine-resistant Plasmodium falciparum Dd2 infected in human erythrocytes assessed as potentiation of choloroquine-mediated antimalarial activity by light microscopy
Plasmodium falciparum [3] = test: Antimicrobial activity against chloroquine-resistant Plasmodium falciparum 3D7 infected in human erythrocytes assessed as potentiation of choloroquine-mediated antimalarial activity by light microscopy
Plasmodium chabaudi [4] = test: Antimicrobial activity against chloroquine-resistant Plasmodium chabaudi ASCQ infected in NIH mice (Mus musculus) assessed as potentiation of 2.5 mg/kg chloroquine-mediated antimalarial activity at 10 to 160 mg/kg, perorally administered after 72 hrs post inoculation measured on day 4 post infection
Plasmodium chabaudi [5] = test: Antimicrobial activity against chloroquine-resistant Plasmodium chabaudi ASCQ infected in NIH mice (Mus musculus) at 10 to 160 mg/kg, perorally administered after 72 hrs post inoculation measured on day 4 post infection
Plasmodium chabaudi [6] = test: Antimicrobial activity against chloroquine-sensitive Plasmodium chabaudi ASS infected in NIH mice (Mus musculus) assessed as potentiation of 2.5 mg/kg chloroquine-mediated antimalarial activity at 100 mg/kg, perorally administered after 72 hrs post inoculation measured on day 4 post infection
Plasmodium chabaudi [7] = test: Antimicrobial activity against chloroquine-resistant Plasmodium chabaudi ASCQ infected in NIH mice (Mus musculus) at 2.5 mg/kg, perorally administered after 72 hrs post inoculation measured on day 4 post infection; parameters: dose 2.5 mg/kg

SMILES	Activity (Plasmodium chabaudi [1])	Activity (Plasmodium falciparum [2])	Activity (Plasmodium falciparum [3])	Activity (Plasmodium chabaudi [4])	Activity (Plasmodium chabaudi [5])	Activity (Plasmodium chabaudi [6])	Activity (Plasmodium chabaudi [7])
COC(=O)N[C@H](C(=O)N[C@@H](Cc1ccccc1)[C@@H](O)CN(Cc1ccc(-c2ccccn2)cc1)NC(=O)[C@@H](NC(=O)OC)C(C)(C)C)C(C)(C)C	Active	Active	Active	–	–	–	–
Cc1cccc(C)c1OCC(=O)N[C@@H](Cc1ccccc1)[C@@H](O)C[C@H](Cc1ccccc1)NC(=O)[C@H](C(C)C)N1CCCNC1=O	inactive	Active	Active	–	–	–	–
CC(C)c1nc(CN(C)C(=O)N[C@H](C(=O)N[C@@H](Cc2ccccc2)C[C@H](O)[C@H](Cc2ccccc2)NC(=O)OCc2cncs2)C(C)C)cs1	Active	Active	Active	Active	Active	Active	–
CCN(CC)CCCC(C)Nc1ccnc2cc(Cl)ccc12 (centres undefined)	–	–	–	–	–	–	inactive
Cc1c(O)cccc1C(=O)N[C@@H](CSc1ccccc1)[C@H](O)CN1C[C@H]2CCCC[C@H]2C[C@H]1C(=O)NC(C)(C)C	Active	Active	Active	–	–	–	–
CC(C)(C)NC(=O)[C@@H]1C[C@@H]2CCCC[C@@H]2CN1C[C@@H](O)[C@H](Cc1ccccc1)NC(=O)[C@H](CC(N)=O)NC(=O)c1ccc2ccccc2n1	Active	Active	Active	–	–	–	–
